Paper PMC7580725 (Drug Delivery, 2020)

Assays:
[1] = Dissolution test under sink condition; type: physicochemical; conditions: deionized water with 0.3% (w/v) SDS, 900 mL, 37 °C, 100 rpm, 20 mg FNB
Method: The dissolution test under sink condition was conducted utilizing a ZRS-8G dissolution tester equipped with USP paddle apparatus (TDTF, Tianjin, China) at 37 °C and 100 rpm. […] Aliquot release medium (5 mL) was withdrawn at predetermined time intervals and an equal volume of fresh medium was added to compensate the sampling loss. The obtained samples were filtered through a 0.22 μm microporous membrane, and determined at 288 nm by UV spectrophotometry (TU-1901, Beijing, China).

[2] = Water contact angle of compressed powder (wettability); type: physicochemical; conditions: pure water drop on compressed slice, Mean ± S.D., n = 3
Method: Powdered materials of different formulations were measured for angle of repose applying a BT 1000 powder analyzer (DanDong Better size Instruments, China). The wettability of the powders was evaluated using a contact angle analyzer (Dataphysics OCA-35, Filderstadt, Germany). Prior to measurement, 300 mg of powder was dried and then compressed into a slice with a diameter size of approximately 12 mm under a pressure of 10 MPa for one minute. […] The dynamic wetting angle was recorded using a video system at the speed of 6 frames/min.

SMILES: CC(C)OC(=O)C(C)(C)Oc1ccc(C(=O)c2ccc(Cl)cc2)cc1 [FNB, Fenofibrate]
- drug release after 5 min [1]: 5.42%
- Contact angle [2]: 87.2 ± 0.4 °
